How the values were obtained:
human JAK2 = biological target: T1, human JAK2 (Homo sapiens, UniProt O60674); experiment: JAK2 kinase enzyme assay (Alphascreen); format: biochemical; settings: 80 or 625 um ATP
T1 construct: The kinase domain of human JAK2 was amplified; GST (N); made in house; host or cells: Sf9 (Spodoptera frugiperda) insect cells, baculovirus
Procedure: (§1) For screening purposes, compounds (in 100% DMSO) were warmed at 37 degrees for at least 20 minutes before use. A […] stock was initially made in assay buffer, where the final concentration of DMSO was 0.3%. The stocks were then diluted in 384 well Optiplates (Packard) where the final concentration of the compound was 5 μM.
The kinase domain of human JAK2 was amplified from U937mRNA using the polymerase chain reaction with the following primers: […]
The JAK2 PCR products were cloned into the pDest20 destination vector (Gibco). The JAK2 plasmid was then transformed into competent DH10Bac cells (Gibco), and the recombinant baculovirus was prepared via Sf9 insect cell transfection.
(§2) Baculovirus preparations from each of the JAK family members were infected into one litre of Sf9 (Spodoptera frugiperda) cells (Invitrogen) grown in SF900II serum free medium (Invitrogen) to a cell density of approximately 2×10^6 cells/ml. Cells were infected with virus at a cell culture to virus stock ratio of 20:1. Cells were harvested and lysed 48 hours post infection. The GST-tagged JAK kinase domains were purified by affinity chromatography on a GSH agarose column (Scientifix).
(§3) Kinase assays were performed in 384 well Optiplates (Packard) using an Alphascreen Protein Tyrosine KinaseP100 detection kit The compounds were pre-incubated with affinity purified PTK domain in the presence of phosphotyrosine assay buffer (10 mM HEPES, pH 7.5, 100 mM MgCl2, 25 mM NaCl, 200 mM sodium vanadate and 0.1% Tween 20) for 20 minutes. The compounds were then incubated with substrate in the presence of either 80 or 625 um ATP for 60 or 90 minutes. The substrate used was either susbtrate-1 with the sequence biotin-EGPWLEEEEEAYGWMDF-NH2 [SEQ. ID. NO. 13] (final concentration 111 μM) or susbtrate-2 substrate with the sequence biotin-EQEDEPEGDYFEWLEPE (final concentration 133 μM). Alphascreen phosphotyrosine acceptor beads followed by streptavidin donor beads at a concentration of 1/100 in stop buffer were added to each well under subdued light and incubated for 2-3 hours. The Alphascreen plates were read on a Packard Fusion Alpha instrument.

human JAK3 = biological target: T2, human JAK3 (Homo sapiens, UniProt P52333); experiment: JAK3 kinase enzyme assay (Alphascreen); format: biochemical; settings: 80 or 625 um ATP
T2 construct: The kinase domain of human JAK3 was amplified; GST (N); made in house; host or cells: Sf9 (Spodoptera frugiperda) insect cells, baculovirus
T2 sequence (P52333 822-1111 limits assumed): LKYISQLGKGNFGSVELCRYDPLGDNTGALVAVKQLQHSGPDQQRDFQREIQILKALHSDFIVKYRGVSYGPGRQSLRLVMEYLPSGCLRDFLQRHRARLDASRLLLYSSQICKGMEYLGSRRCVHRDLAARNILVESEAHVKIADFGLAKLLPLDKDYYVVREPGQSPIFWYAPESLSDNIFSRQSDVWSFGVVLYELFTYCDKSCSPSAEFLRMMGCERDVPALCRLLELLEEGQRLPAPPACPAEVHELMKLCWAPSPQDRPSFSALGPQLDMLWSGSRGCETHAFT
Procedure: as §1
The kinase domain of human JAK3 was amplified from U937mRNA using the polymerase chain reaction with the following primers: […]
The JAK3 PCR products were cloned into the pDest20 destination expression vector (Gibco). The JAK3 plasmid was then transformed into competent DH10Bac cells (Gibco), and the recombinant baculovirus was prepared via Sf9 insect cell transfection.
as §2, §3

BafT_J2 = experiment: Cellular screening, BaF3 TEL:JAK2 cells (Alamar Blue); format: cell-based; settings: Mus musculus, 40 hr incubation
Procedure: (§4) For screening purposes, compounds were diluted in 96 well plates at a concentration of 20 μM. Plates were warmed at 37° C. for 30 minutes before the assay was performed.
(§5) The coding region encompassing nucleotides 1-487 of TEL was amplified by PCR using the oligonucleotides 5TEL (5′-GGAGGATCCTGATCTCTCTCGCTGTGAGAC-3′) [SEQ ID NO 14] and 3TEL (5′-AGGC GTCGACTTCTTCTTCATGGTTCTG-3′) [SEQ ID NO 15] and U937 mRNA as a template. A BamHI restriction site was incorporated into the 5TEL primer, and a Sal I restriction site was incorporated into the 3TEL primer. The regions encompassing the kinase domain of JAK2 (nucleotides 2994-3914; JAK2F 5′-ACGC GTCGACGGTGCCTTTGAAGACCGGGAT-3′ [SEQ ID NO 16]; JAK2R 5′-ATAGTTTAGCGGCCGCTCAGAATGAAGGTCATTT-3′) [SEQ ID NO 17] and JAK3 (nucleotides 2520-3469; JAK3F 5′-GAAGTCGACTATGCCTGCCAAGACCCCACGATCTT-3′) [SEQ ID NO 18] were generated by PCR using Taq DNA polymerase (Gibco/BRL) and U937 mRNA as a template. A Sal I restriction site was incorporated into the forward primer of JAK2 and JAK3, a Not I site was incorporated into the JAK2 reverse primer and a Xba I site was added to the reverse primer of JAK3.
A TEL/Jak2 fusion was generated by digestion of the TELPCR product with BamH I/Sal I restriction enzymes, digestion of the JAK2 PCR product with Sal I/Not I restriction enzymes, followed by ligation and subcloning of the ligation product into the mammalian expression Vector pTRE 2 (Clontech), which was prepared by digestion with BamH I-Not I restriction enzymes, to give the TEL/Jak2 fusion plasmid pTELJAK2.
(§6) The growth factor dependant myelomonocytic cell line BaF3 bearing the pTET-off plasmid (Clontech) was transfected with either pTELJAK2 or pTELJAK3, and the transfected cells were selected for growth-factor independent cell growth. The BaF3 wild-type cells were cultured in DMEM containing 10% FCS, 10% WEHI 3B conditioned medium. The BaF3 TELJAK cells ([…]) were cultured in DMEM 10% Tet-System Approved FBS (without WEHI 3B conditioned medium).
(§7) Cell suspensions were prepared by harvesting cells from culture. (the cells used in this test were in late log phase growth with high viability.) Cells were diluted in the appropriate growth medium, as described above, to 1.1× final concentration (from 50,000 cell/mL to 200,000 cell/mL, depending on cell line).
(§8) Compounds to be tested were added (10 μL, 10× final concentration) to a flat bottomed 96-well plate. The cellular suspension (90 μL per well) was then added, and the plate incubated for 40 hr at 37° C., 5% CO2. Alamar Blue 10 μL per well was added and the plates returned to the incubator for a further 4-6 hours. The plates were then read at 544 nm.

BAF3wt = experiment: Cellular screening, BaF3 wild-type cells (Alamar Blue); format: cell-based; settings: Mus musculus, 40 hr incubation
Procedure: as §4, §6, §7, §8

BafT_J3 = experiment: Cellular screening, BaF3 TEL:JAK3 cells (Alamar Blue); format: cell-based; settings: Mus musculus, 40 hr incubation
Procedure: as §4, §5
The TEL/Jak3 fusion was prepared by ligation of the JAK3 Sal I/Not I cleaved kinase domain PCR product with the BamH I/Sal I restriction digested TEL product, followed by ligation of the ligation product into the BamH I/Not I digested pTRE2, to give the TEL/Jak3 fusion plasmid pTELJAK3.
as §6, §7, §8

CTLL2 = experiment: Cellular screening, CTLL2 cells (Alamar Blue); format: cell-based; settings: Mus musculus, CTLL-2, 40 hr incubation
Procedure: as §4, §7, §8

T1 sequence (O60674 849-1124 limits assumed): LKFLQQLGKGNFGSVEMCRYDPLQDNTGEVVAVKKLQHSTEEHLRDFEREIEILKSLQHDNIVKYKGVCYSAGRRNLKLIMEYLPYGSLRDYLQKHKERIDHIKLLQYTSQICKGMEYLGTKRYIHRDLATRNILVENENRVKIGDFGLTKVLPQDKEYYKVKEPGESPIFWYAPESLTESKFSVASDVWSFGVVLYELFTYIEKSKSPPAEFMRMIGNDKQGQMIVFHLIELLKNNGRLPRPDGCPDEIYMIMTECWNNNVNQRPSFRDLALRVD

| SMILES | IC50 (human JAK2) [nM] | IC50 (human JAK3) [nM] | IC50 (BafT_J2) [nM] | IC50 (BAF3wt) [nM] | IC50 (BafT_J3) [nM] | IC50 (CTLL2) [nM] |
| --- | --- | --- | --- | --- | --- | --- |
| CS(=O)(=O)N(CC#N)c1ccc(-c2csc3cnc(Nc4ccc(N5CCOCC5)cc4)nc23)cc1 [Compound 32, N-(cyanomethyl)-N-(4-(2-(4-morpholinophenylamino)thieno[3,2-d]pyrimidin-7-yl)phenyl)methanesulfonamide] | < 100 | < 100 | < 1000 | < 5000 | < 1000 | < 1000 |
| Nc1ccc(-c2csc3cnc(Nc4ccc(N5CCOCC5)cc4)nc23)cc1 [Compound 2, 7-(4-aminophenyl)-N-(4-morpholinophenyl)thieno[3,2-d]pyrimidin-2-amine] | < 100 | < 100 | < 1000 | < 1000 | < 1000 | < 1000 |
| CCN1CCC(Oc2ccc(Nc3ncc4scc(-c5cn[nH]c5)c4n3)cc2)CC1 [Compound 98, N-(4-(1-ethylpiperidin-4-yloxy)phenyl)-7-(1H-pyrazol-4-yl)thieno[3,2-d]pyrimidin-2-amine] | < 100 | < 100 | < 1000 | < 1000 | < 1000 | < 1000 |
| CC(=O)Nc1cccc(-c2csc3cnc(Nc4ccc(OCCN5CCCC5)cc4)nc23)c1 [Compound 62, N-(3-(2-(4-(2-(pyrrolidin-1-yl)ethoxy)phenylamino)thieno[3,2-d]pyrimidin-7-yl)phenyl)acetamide] | < 100 | < 100 | < 1000 | < 1000 | < 1000 | < 1000 |
| COc1ncc(-c2csc3cnc(Nc4ccc(OC)c(OC)c4)nc23)c(OC)n1 [Compound 56, N-(3,4-dimethoxyphenyl)-7-(2,4-dimethoxypyrimidin-5-yl)thieno[3,2-d]pyrimidin-2-amine] | < 100 | < 100 | < 5000 | < 5000 | < 5000 | < 5000 |
| CC(=O)Nc1cccc(-c2csc3cnc(Nc4ccc(N5CCOCC5)cc4)nc23)c1 [Compound 30, N-(3-(2-(4-morpholinophenylamino)thieno[3,2-d]pyrimidin-7-yl)phenyl)acetamide] | < 100 | < 100 | < 1000 | < 1000 | < 1000 | < 5000 |
| CC(C)(C)OC(=O)NCc1cccc(-c2csc3cnc(Nc4ccc(OCCN5CCCC5)cc4)nc23)c1 [Compound 72] | < 100 | < 100 | < 1000 | < 5000 | < 1000 | < 1000 |
| CC(C)(C)NS(=O)(=O)c1cccc(-c2csc3cnc(Nc4ccc(OCCN5CCCC5)cc4)nc23)c1 [Compound 71, N-tert-butyl-3-(2-(4-(2-(pyrrolidin-1-yl)ethoxy)phenylamino)thieno[3,2-d]pyrimidin-7-yl)benzenesulfonamide] | < 100 | < 100 | < 1000 | < 5000 | < 1000 | < 5000 |
| CS(=O)(=O)NCc1cccc(-c2csc3cnc(Nc4ccc(OCCN5CCCC5)cc4)nc23)c1 [Compound 91] | < 100 | < 100 | < 1000 | < 1000 | < 1000 | < 1000 |
| CS(=O)(=O)Nc1cccc(-c2csc3cnc(Nc4ccc(CN5CCOCC5)cc4)nc23)c1 [Compound 83, N-(3-(2-(4-(morpholinomethyl)phenylamino)thieno[3,2-d]pyrimidin-7-yl)phenyl)methanesulfonamide] | < 100 | < 100 | < 1000 | < 1000 | < 1000 | < 1000 |
| CCc1ccccc1-c1csc2cnc(Nc3cccc(N)c3)nc12 [Compound 22, N1-(7-(2-ethylphenyl)thieno[3,2-d]pyrimidin-2-yl)benzene-1,3-diamine] | < 100 | < 100 | < 1000 | < 5000 | < 5000 | < 1000 |
| c1cc(Nc2ncc3scc(-c4ccc5c(c4)OCO5)c3n2)ccc1CN1CCOCC1 [Compound 76, 7-(benzo[d][1,3]dioxol-5-yl)-N-(4-(morpholinomethyl)phenyl)thieno[3,2-d]pyrimidin-2-amine] | < 100 | < 500 | < 1000 | < 1000 | < 1000 | < 1000 |
| COc1cc(Nc2ncc3scc(-c4cccc(CO)c4)c3n2)cc(OC)c1OC [Compound 87, (3-(2-(3,4,5-trimethoxyphenylamino)thieno[3,2-d]pyrimidin-7-yl)phenyl)methanol] | < 100 | < 100 | < 1000 | < 1000 | < 1000 | < 1000 |
| c1cc(-c2csc3cnc(Nc4ccc(CN5CCOCC5)cc4)nc23)cc(N2CCNCC2)c1 [Compound 93, N-(4-(morpholinomethyl)phenyl)-7-(3-(piperazin-1-yl)phenyl)thieno[3,2-d]pyrimidin-2-amine] | < 100 | < 100 | < 1000 | < 1000 | < 1000 | < 1000 |
| COc1cc(Nc2ncc3scc(-c4ccc(CO)cc4)c3n2)cc(OC)c1OC [Compound 88, (4-(2-(3,4,5-trimethoxyphenylamino)thieno[3,2-d]pyrimidin-7-yl)phenyl)methanol] | < 100 | < 100 | < 1000 | < 1000 | < 1000 | < 1000 |
